Measured values reported in publication PMC7463460, “Structure and Antiparasitic Activity Relationship of Alkylphosphocholine Analogues against Leishmania donovani” (Microorganisms, 2020).
Where “and” joins values, the source holds several entries; their conditions need not be identical. Equal values may be shown once. Read-outs that look alike come from different tables or passages of the source.

Columns and labels:
[1] = tested on: visceral leishmaniasis; conditions: VL, 12 months post-treatment; cited from earlier work
[2] = Cytotoxicity against uninfected macrophages (alamar blue); type: cell-based, BALB/c mice; conditions: BALB/c, mouse, read-out: Macrophage mean IC50 (CC50) (converted)
Experimental: (§1) The effect of drug treatment on parasite survival was determined by calculating the mean suppression in the light emitted from the drug-treated experimental sample compared to the mean control value and used to calculate the IC50 using Grafit® software (version 5.0, Erithacus Software, East Grinstead, West Sussex, UK). The effect of drug alone on the viability of uninfected macrophages was determined using the same experimental protocol above, but cell viability was determined using an alamar blue colorimetric assay. At the end of the incubation period, cells’ 10 µL resazurin solution (0.02% w/v) was added to control and drug treated cells and the absorbance of samples was read at 575 and 595 nm. The effect of drug treatment on cell survival, which correlates with the magnitude of dye reduction, was expressed as percentage viability (or alamar blue reduction) and determined using the formula provided in the manufacturer’s protocol % alamar blue reduction=(εoxλ)(Aλ1)−(εoxλ1)(Aλ2)/(εredλ1)(A^′λ2)−(εredλ2)(A^′λ1)x100
(§2) In the formula, ελ1 and ελ2 are constants representing the molar extinction coefficient of alamar blue at 575 and 595 nm, respectively, in the oxidized (εox) and reduced (εred) forms. Aλ1, Aλ2 and A’λ1, A’λ2 represent absorbance of test and negative control wells at 575 and 595 nm, respectively. The values of % alamar blue reduction (or % viability) were corrected for background values of negative controls containing medium without cells. Percent viability values were used to calculate the IC50 using Grafit® software (version 5.0).

[3] = tested on: L. donovani LV82 promastigotes; test: Luciferase-expressing promastigote assay, strain LV82; type: cell-based, Leishmania donovani; conditions: for Promast: Amast Ratio: LV82; for IC50: Leishmania donovani, 72 h, LV82, 3 days, 25 °C
Experimental: The anti-leishmanial activity of APC against L. donovani luciferase-expressing promastigotes was determined by adding of the appropriate 100 µL parasite line (10^6 cells/mL) to the wells of a 96-well plate and adding 100 µL medium alone (controls) or 100 µL of APC compound (0.01 µg/mL–6.25 µg/mL, n = 3/treatment). The plate was incubated for 72 h at 25 °C. In combination assays, the additional compound/compounds, at a final concentration of 0.195 or 0.39 µg/mL, was added to the initial APC being tested.
(§3) Luciferin solution (1 µg/mL in 20 µL medium without FCS) was added to the appropriate wells of the 96-well plate at the end of the experiment and the amount of light emitted/well was measured using a luminometer (Biotek Synergy HT, relative light units) using a wavelength/bandwidth of 440/40 nm, or IVIS® imaging (Spectrum Living Image system®, total flux, photons/sec).
as §1

[4] = tested on: L. donovani LV82 intracellular amastigotes; test: Intracellular amastigote assay in bone-marrow-derived macrophages, strain LV82; type: cell-based, Leishmania donovani; conditions: for Selectivity Index (SI50): macrophage CC50 / LV82 intracellular amastigote IC50
Experimental: In the macrophage studies, the method described in previous studies was used as follows. […] It is possible that intracellular macrophage parasites could have been at different developmental stages at 24 h post-infection. […] Therefore, we assumed that the effect of compounds on the amastigote stage rather than the promastigotes stage was determined in in vitro macrophage studies.
The plate was incubated for a further 24 h, the medium removed, and each well washed with PBS to eliminate non-internalized parasites, which were monitored microscopically. […] Wells with macrophage and with no drug or promastigotes added were used in control experiments.
as §3
as §1, with “At the end of the incubation period, cells’ 10 µL resazurin solution (0.02% w/v) was added to control and drug treated cells and the absorbance of samples was read at 575 and 595 nm.” left out

[5] = tested on: bone-marrow-derived macrophages from BALB/c mice; test: Cytotoxicity against uninfected macrophages (alamar blue); type: cell-based; conditions: 3 days
Experimental: as §1, §2

[6] = uninfected bone-marrow-derived macrophages
[7] = Leishmania donovani, Macrophage, in Mus musculus, 72 h, LV82, intracellular in BALB/c macrophages, 3 days, 37 °C
[8] = LV82, intracellular in BALB/c macrophages, 3 days, 37 °C

Compound	cure rate [1]	IC50 at 3 days [2, 6]	Promast: Amast Ratio [3]	IC50 [3]	IC50 [4, 7]	Selectivity Index (SI50) [4]	IC50 at 3 days [2]	activity against L. donovani compared to controls ([3]; LV82 promastigotes and amastigotes)	Macrophage mean IC50 (CC50) [5]	IC50 ([5]; read-out: Macrophage mean IC50 (CC50) (converted))	Amastigote mean IC50 [4, 8]	IC50 [4, 8]
C[C@@H]1[C@H](O)[C@@H](C)/C=C/C=C/C=C/C=C/C=C/C=C/C=C/[C@H](O[C@@H]2O[C@H](C)[C@@H](O)[C@H](N)[C@@H]2O)C[C@@H]2O[C@](O)(C[C@@H](O)C[C@@H](O)[C@H](O)CC[C@@H](O)C[C@@H](O)CC(=O)O[C@H]1C)C[C@H](O)[C@H]2C(=O)O [AMB, amphotericin B]	93.7%	–	–	–	–	–	–	–	–	–	–	–
CC(C)CCC(CCC(C)C)OP(=O)([O-])OCC[N+](C)(C)C [APC11PC, 2,8-Dimethyl-5-Nonylphosphocholine]	–	61.9 µg/mL and 185 µM	>33.60	> 6.25 µg/mL and > 18.6 µM	0.19 µg/mL and 550 nM	335.56	–	–	–	–	–	–
C=CCCCCCCCCCOP(=O)([O-])OCC[N+](C)(C)C [APC11UPC, 10-Undecylenyl-1-phosphocholine]	–	54 µg/mL and 161 µM	135.34	1.8 µg/mL and 5.37 µM	0.01 µg/mL and 40 nM	4025.00	–	–	–	–	–	–
CCCCCCCCCCCCOP(=O)([O-])OCCCCCC[N+](C)(C)C [APC12P6C]	–	14.1 µg/mL and 34.6 µM	33.33	33.5 µg/mL and 82.2 µM	1.01 µg/mL and 2.47 µM	14.01	–	–	–	–	–	–
CCCCCCCCCCCC[N+](C)(C)CCCCCCCCCCCC [DAB, didodecyldimethyl ammonium bromide]	–	–	0.79	0.04 µg/mL and 91 nM	0.06 µg/mL and 119 nM	1503.45	82.8 µg/mL and 179 µM	–	–	–	–	–
CCCCCCCCCCCCOP(=O)(O)O [PO, mono –n-dodecyl phosphate]	–	100 µg/mL and 401 µM	>3.12	> 6.25 µg/mL and > 25.1 µM	> 2 µg/mL and > 8.02 µM	>50.00	–	inactive	–	–	–	–
dodecylamine [DA]	–	–	0.18	–	–	79.88	–	–	37.60 ± 0.01 µg/mL	203 µM	0.47 ± 0.00 µg/mL	2.54 µM
